Patent publication US5770688A, “Method and composition for the treatment of mammalian HIV infection” (GSF-Forschungszentrum fur Umwelt und Gesundheit GmbH, priority 1989, dated 1998)

What was measured:
reverse transcriptase = experiment: activity of reverse transcriptase in the supernatant of treated, HIV infected cell culture; format: cell-based
Protocol: Referring more particularly to FIGS. 1-4, melittin (Seq. ID NO:1) and its specified analogues were tested for their effect on HIV-infected T-lymphoma cells. In this regard the following cell lines were employed in the testing: KE37-1 (uninfected) and KE37-1/111S (infected with HTLV-111β). These infected cells were incubated for a period of seven days under test conditions at a temperature of 37° C. and in the presence of 5% CO2. A culture medium of RPMI 1640 (GIBCO) was employed and was further supplemented with 10% fetal calf serum which contained approximately 100 units of penicillin, 100μ of streptomycin, and approximately 0.25μ fungizone (Amphotericin B) per milliliter. This equals 1 milliliter of antibiotic-antimycotic solution (GIBCO Catalogue No. 043-05240 per 100 ml. of medium.) After a one week incubation period in the presence of various concentrations of the above-identified substances, which were added fresh daily to the medium, the following tests were carried out with the cultures. A first test was conducted for purposes of determining the relative cell concentration as a function of the number of HIV infected cells present by employing an MTT test. […] The optical density (OD) of the solution was determined at=600 nm. […]

HIV-infected LC5 cells = experiment: MTT toxicity/killing of HIV infected cells (Biomek 1000); format: cell-based, human
Protocol: The KE37-1 (uninfected) and KE37-1/111β (infected) cell lines discussed below are commercially available from the Dr. Robert Gallows Laboratory of the NIH in the United States of America and grown in a medium of RPMI 1640 (GIBCO) and further supplemented with 10% fetal calf serum which contained approximately 100 units of penicillin, 100 μg streptomycin, and approximately 0.25 μg fungizone (Amphotericin B) per milliliter. The human mesenchymal cell lines LC5 and LC5-HIV, discussed below, are deposited with the Collection De L'Institut Pasteur of Paris, France on Mar. 9, 1989 and given the accession numbers I-842 and I-843, respectively. The LC5 and LC5-HIV cell lines were grown in a medium of RPMI 1640 and supplemented with 10% fetal calf serum.
A series of experiments and which are illustrated graphically in FIGS. 6 through 34, respectively, were designed to detect two extremes. In particular the tests were designed to detect the inhibition of viral release and/or the release of virus which has a reduced ability to infect other cells. This reduced ability to infect other cells is represented, for example, by glycosylation inhibitors, the direct effect on virus release is represented by acylation inhibitors, RT inhibitors and melittin (Seq. ID NO:1). The most important feature of this experimental design, however, is to detect the toxicity of melittin. The present experiments were carried out on both the astrocytoma cell line LC5-HIV (cloned infected cells) and T-lymphocytoma cell line KE37-1/IIIβ (cloned infected cells with HTLV-IIIβ). In both cases the results were essentially identical.
In the present series of experiments HIV release was tested by a fully automated laboratory robot system and which is manufactured by Beckman Instruments as the Biomek 1000. This system performed the following steps. First, chronically infected cells (cloned) are plated in microtiter plates and grown for a period of seven days. They are then challenged by melittin (Seq. ID NO:1) during this period either for the final day or throughout the period as shown in the figures. The number of living cells are quantified by MTT, that is by a metabolic (dehydrogenase) test. The MTT test is automatically performed. The toxic effect is detected at the time of the experiment and not in a separate control experiment. Furthermore, the supernatant, and which contains released virus cells from the period of time which elapsed from the last wash, and which may vary from 24 hours to 7 days, is collected from the culture, and an aliquot is saved for virus quantification by employing antigen or viral enzyme reverse transcriptase (RT). Furthermore, an aliquot is added to a culture of uninfected cells in microtiter plates for subsequent measurement of the ability of the virus cells to reinfect these uninfected cells. In this regard, the number of infected cells is automatically quantified by an immunoperoxidase staining technique. The test results, as shown, are expressed in terms of toxicity of the melittin (MTT test); the release of HIV from the primary culture (RT test); and the ability of the released virus to infect previously uninfected cells.

Substance: Gly-Ile-Gly-Ala-Val-Leu-Lys-Val-Leu-Thr-Thr-Gly-Leu-Pro-Ala-Leu-Ile-Ser-Trp-Ile-Lys-Arg-Lys-Arg-Gln-Gln-Amide [melittin]
- activity of reverse transcriptase (RT%) (reverse transcriptase; 2.5 μg per ml, FIG. 2): revert substantially back to zero
- activity of reverse transcriptase, in words (reverse transcriptase; subtoxic concentrations): inhibition of reverse transcriptase
- killing concentration compared with concentration for effect on HIV release (HIV-infected LC5 cells): ten times higher than the effect on HIV release
- lysis of HIV-infected LC5 cells (HIV-infected LC5 cells): able to lyse HIV-infected LC5 cells
- selectivity for infected cells, in words (HIV-infected LC5 cells; FIGS. 6-19): appears to not selectively affect the infected cells
- critical concentration at which all infected cells were killed (HIV-infected LC5 cells; infected): 10 μg per ml
